# Assay results taken from patent US20260137091A1, “NEW PEPTIDES AND THE USE OF SAME FOR MODULATING ACCUMULATION OF A PROTEIN” (priority 2022, published 2026).
# System: NSP1-GUS fusion protein
# Experiment: Quantification of GUS activity in roots expressing an NSP1-GUS fusion after cPEP treatment
# Assay type: in vivo
# Settings: Medicago truncatula transformed roots; treatment for 5 days with 0.1 μM cPEP by spraying; versus control (water)
# Procedure: The y-axis represents the quantification of GUS activity in the roots of an NSP1-GUS fusion in response to treatment for 5 days with 0.1 μM of a cPEP targeting the 5′UTR region of the NSP1 gene. Error bars represent SEM, asterisks indicate a significant difference between test condition and control according to Student's t-test (n=30, p<0.05).
# NSP1::GUS fusion was achieved, using a modified pCambia vector (Lauressergues et al., Nature, 520: 90-3, 2015), by cloning 3 kb of NSP1 promoter, the NSP1 gene coding sequence, the GUS protein coding sequence and 3 kb of the NSP1 gene downstream sequence (FIG. 2).
# Root transformation of M. truncatula was carried out using the method described in Boisson-Dernier et al, Mol Plant Microbe Interact, 14(6): 695-700, 2001.
# Plants were treated by spraying with a solution containing a low concentration of cPEPs (from 0.1 μM to 10 μM) or with water.
# The accumulation of the protein targeted by cPEP was then measured in each plant by quantifying GUS activity or by quantifying protein activity by Western blot (Blizquez M., Quantitative GUS activity assay in intact plant tissue, Cold Spring Harbor Laboratory Press, Cold Spring Harbor, NY, USA, 2002).
row,Substance,accumulation of the NSP1 protein (quantification of GUS activity in the roots of an NSP1-GUS fusion)
1,"SEQ ID NO: 162: cPEP (11 amino acids) translated from a fragment of the 5′UTR of NSP1 pre-mRNA, +3 reading frame (KPFKFSSSISH; NSP1-5UTR-11)",increase in the accumulation of the NSP1 protein
2,"SEQ ID NO: 164: cPEP (10 amino acids) translated from a 30 nucleotide fragment of the 3′UTR of NSP1 pre-mRNA, +2 reading frame (CHHDEVISPQ; NSP1-3UTR)",increase in the accumulation of the NSP1 protein
